In patent US9695155B2, “Herbicidal substituted pyrimidinyloxy benzene compounds” (E. I. DU PONT DE NEMOURS AND COMPANY, priority 2013, dated 2017):

How the values were obtained:
barnyardgrass [1] = test: Test A preemergence; format: in vivo, Echinochloa crus-galli; details: for Plant response rating, Barnyardgrass: 125 g ai/ha, 0 to 100 scale where 0 is no effect and 100 is complete control; for Barnyardgrass plant response rating: 500 g ai/ha, 0 to 100 scale, 0 no effect, 100 complete control, approx. 10 days
Excerpt: (§1) Seeds of plant species selected from barnyardgrass (Echinochloa crus-galli), kochia (Kochia scoparia), ragweed (common ragweed, Ambrosia elatior), Italian ryegrass (Lolium multiflorum), large (Lg) crabgrass (Digitaria sanguinalis), giant foxtail (Setaria faberii), morningglory (Ipomoea spp.), pigweed (Amaranthus retroflexus), velvetleaf (Abutilon theophrasti), wheat (Triticum aestivum), and corn (Zea mays) were planted into a blend of loam soil and sand and treated preemergence with a directed soil spray using test chemicals formulated in a non-phytotoxic solvent mixture which included a surfactant.
(§2) At the same time, plants selected from these crop and weed species and also blackgrass (Alopecurus myosuroides), and galium (catchweed bedstraw, Galium aparine) were planted in pots containing the same blend of loam soil and sand and treated with postemergence applications of test chemicals formulated in the same manner. Plants ranged in height from 2 to 10 cm and were in the one- to two-leaf stage for the postemergence treatment. Treated plants and untreated controls were maintained in a greenhouse for approximately 10 days, after which time all treated plants were compared to untreated controls and visually evaluated for injury. Plant response ratings, summarized in Table A, are based on a 0 to 100 scale where 0 is no effect and 100 is complete control. A dash (-) response means no test result.

large (Lg) crabgrass [2] = test: Test A preemergence; format: in vivo, Digitaria sanguinalis; details: for Plant response rating, Crabgrass, Large: 125 g ai/ha, 0 to 100 scale where 0 is no effect and 100 is complete control; for Crabgrass, Large plant response rating: 500 g ai/ha, 0 to 100 scale, 0 no effect, 100 complete control, approx. 10 days
Excerpt: as §1, §2

giant foxtail [3] = test: Test A preemergence; format: in vivo, Setaria faberii; details: for Plant response rating, Foxtail, Giant: 125 g ai/ha, 0 to 100 scale where 0 is no effect and 100 is complete control; for Foxtail, Giant plant response rating: 500 g ai/ha, 0 to 100 scale, 0 no effect, 100 complete control, approx. 10 days
Excerpt: as §1, §2

pigweed [4] = test: Test A preemergence; format: in vivo, Amaranthus retroflexus; details: for Plant response rating, Pigweed: 125 g ai/ha, 0 to 100 scale where 0 is no effect and 100 is complete control; for Pigweed plant response rating: 500 g ai/ha, 0 to 100 scale, 0 no effect, 100 complete control, approx. 10 days
Excerpt: as §1, §2

velvetleaf [5] = test: Test A preemergence; format: in vivo, Abutilon theophrasti; details: for Plant response rating, Velvetleaf: 125 g ai/ha, 0 to 100 scale where 0 is no effect and 100 is complete control; for Velvetleaf plant response rating: 500 g ai/ha, 0 to 100 scale, 0 no effect, 100 complete control, approx. 10 days
Excerpt: as §1, §2

wheat [6] = test: Test A preemergence; format: in vivo, Triticum aestivum; details: for Plant response rating, Wheat: 125 g ai/ha, 0 to 100 scale where 0 is no effect and 100 is complete control; for Wheat plant response rating: 500 g ai/ha, 0 to 100 scale, 0 no effect, 100 complete control, approx. 10 days
Excerpt: as §1, §2

corn [7] = test: Test A preemergence; format: in vivo, Zea mays; details: for Plant response rating, Corn: 125 g ai/ha, 0 to 100 scale where 0 is no effect and 100 is complete control; for Corn plant response rating: 500 g ai/ha, 0 to 100 scale, 0 no effect, 100 complete control, approx. 10 days
Excerpt: as §1, §2

barnyardgrass [8] = test: Test A postemergence; format: in vivo, Echinochloa crus-galli
How it was run: (§3)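 Visual injury scored 0–100 (100 = complete control) against untreated controls about 10 days after treatment in a greenhouse. Test chemicals, formulated with surfactant in non-phytotoxic solvent, were sprayed on soil preemergence or on 2-10 cm, one- to two-leaf plants postemergence.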

large (Lg) crabgrass [9] = test: Test A postemergence; format: in vivo, Digitaria sanguinalis
How it was run: as §3

giant foxtail [10] = test: Test A postemergence; format: in vivo, Setaria faberii
How it was run: as §3

pigweed [11] = test: Test A postemergence; format: in vivo, Amaranthus retroflexus
Excerpt: as §1, §2

velvetleaf [12] = test: Test A postemergence; format: in vivo, Abutilon theophrasti
Excerpt: as §1, §2

wheat [13] = test: Test A postemergence; format: in vivo, Triticum aestivum
How it was run: as §3

corn [14] = test: Test A postemergence; format: in vivo, Zea mays
Excerpt: as §1, §2

rice = test: Test B flooded paddy test; format: in vivo, Oryza sativa; details: Flood, 250 g ai/ha; 0 to 100 scale where 0 is no effect and 100 is complete control
Procedure: (§4) Plant species in the flooded paddy test selected from rice (Oryza sativa), sedge, umbrella (small-flower umbrella sedge, Cyperus difformis), (Heteranthera limosa), and barnyardgrass (Echinochloa crus-galli) were grown to the 2-leaf stage for testing. At time of treatment, test pots were flooded to 3 cm above the soil surface, treated by application of test compounds directly to the paddy water, and then maintained at that water depth for the duration of the test. Treated plants and controls were maintained in a greenhouse for 13 to 15 days, after which time all species were compared to controls and visually evaluated. Plant response ratings, summarized in Table B, are based on a scale of 0 to 100 where 0 is no effect and 100 is complete control. A dash (-) response means no test result.

sedge, umbrella = test: Test B flooded paddy test; format: in vivo, Cyperus difformis; details: Flood, 250 g ai/ha; 0 to 100 scale where 0 is no effect and 100 is complete control
Procedure: as §4

Heteranthera limosa = test: Test B flooded paddy test; format: in vivo; details: Flood, 250 g ai/ha; 0 to 100 scale where 0 is no effect and 100 is complete control
Procedure: as §4

barnyardgrass [15] = test: Test B flooded paddy test; format: in vivo, Echinochloa crus-galli; details: Flood, 250 g ai/ha; 0 to 100 scale where 0 is no effect and 100 is complete control
Procedure: as §4

morningglory = test: Test A preemergence; format: in vivo, Ipomoea spp.; details: for Plant response rating, Morningglory: 125 g ai/ha, 0 to 100 scale where 0 is no effect and 100 is complete control; for Morningglory plant response rating: 500 g ai/ha, 0 to 100 scale, 0 no effect, 100 complete control, approx. 10 days
Excerpt: as §1, §2

[16] = 125 g ai/ha, 0 to 100 scale where 0 is no effect and 100 is complete control
[17] = 500 g ai/ha, 0 to 100 scale, 0 no effect, 100 complete control

Compound | Plant response rating, Barnyardgrass (barnyardgrass [1]) | Barnyardgrass plant response rating (barnyardgrass [1]) | Plant response rating, Crabgrass, Large (large (Lg) crabgrass [2]) | Crabgrass, Large plant response rating (large (Lg) crabgrass [2]) | Plant response rating, Foxtail, Giant (giant foxtail [3]) | Foxtail, Giant plant response rating (giant foxtail [3]) | Plant response rating, Pigweed (pigweed [4]) | Pigweed plant response rating (pigweed [4]) | Plant response rating, Velvetleaf (velvetleaf [5]) | Velvetleaf plant response rating (velvetleaf [5]) | Plant response rating, Wheat (wheat [6]) | Wheat plant response rating (wheat [6]) | Plant response rating, Corn (corn [7]) | Corn plant response rating (corn [7]) | Plant response rating, Barnyardgrass (barnyardgrass [8]; [16]) | Plant response rating, Barnyardgrass (barnyardgrass [8]; [17]) | Plant response rating, Crabgrass, Large (large (Lg) crabgrass [9]; [16]) | Plant response rating, Crabgrass, Large (large (Lg) crabgrass [9]; [17]) | Plant response rating, Foxtail, Giant (giant foxtail [10]; [16]) | Plant response rating, Foxtail, Giant (giant foxtail [10]; [17]) | also measured
Cc1ccn(-c2ccccc2Oc2ncc(Cl)cn2)n1 [Compound 36] | 0 | 0 | 0 | 70 | 0 | 20 | 0 | 20 | 0 | 20 | 0 | 0 | 0 | 0 | 0 | 0 | 0 | 10 | 0 | 0 | Plant response rating, Pigweed (pigweed [11]; [16]): 0; Plant response rating, Pigweed (pigweed [11]; [17]): 20; Plant response rating, Velvetleaf (velvetleaf [12]; [16]): 20; Plant response rating, Velvetleaf (velvetleaf [12]; [17]): 70; Plant response rating, Wheat (wheat [13]; [16]): 0; Plant response rating, Wheat (wheat [13]; [17]): 0; Plant response rating, Corn (corn [14]; [16]): 0; Plant response rating, Corn (corn [14]; [17]): 0; Plant response rating, Rice (rice): 0; Plant response rating, Sedge, Umbrella (sedge, umbrella): 0; Plant response rating, Ducksalad (Heteranthera limosa): 0; Plant response rating, Barnyardgrass (barnyardgrass [15]): 0
Cc1nn(-c2ccccc2Oc2ncc(Cl)cn2)cc1Br [Compound 37] | 0 | 10 | 10 | 80 | 10 | 30 | 0 | 0 | 10 | 10 | 0 | 0 | 0 | 0 | 0 | 0 | 0 | 0 | 0 | 0 | Plant response rating, Morningglory (morningglory): 0; Morningglory plant response rating (morningglory): 0; Plant response rating, Pigweed (pigweed [11]; [16]): 0; Plant response rating, Pigweed (pigweed [11]; [17]): 10; Plant response rating, Velvetleaf (velvetleaf [12]; [16]): 20; Plant response rating, Velvetleaf (velvetleaf [12]; [17]): 40; Plant response rating, Wheat (wheat [13]; [16]): 0; Plant response rating, Wheat (wheat [13]; [17]): 0; Plant response rating, Corn (corn [14]; [16]): 0; Plant response rating, Corn (corn [14]; [17]): 0; Plant response rating, Rice (rice): 0; Plant response rating, Sedge, Umbrella (sedge, umbrella): 0; Plant response rating, Ducksalad (Heteranthera limosa): 0; Plant response rating, Barnyardgrass (barnyardgrass [15]): 0
Cc1nn(-c2ccccc2Oc2ncc(Cl)cn2)cc1Cl [Compound 38] | 0 | 0 | 0 | 40 | 0 | 20 | 0 | 0 | 0 | 10 | 0 | 0 | 0 | 0 | 0 | 0 | 0 | 10 | 0 | 0 | Plant response rating, Morningglory (morningglory): 0; Morningglory plant response rating (morningglory): 0; Plant response rating, Pigweed (pigweed [11]; [16]): 0; Plant response rating, Pigweed (pigweed [11]; [17]): 10; Plant response rating, Velvetleaf (velvetleaf [12]; [16]): 10; Plant response rating, Velvetleaf (velvetleaf [12]; [17]): 20; Plant response rating, Wheat (wheat [13]; [16]): 0; Plant response rating, Wheat (wheat [13]; [17]): 0; Plant response rating, Corn (corn [14]; [16]): 0; Plant response rating, Corn (corn [14]; [17]): 0; Plant response rating, Rice (rice): 0; Plant response rating, Sedge, Umbrella (sedge, umbrella): 30; Plant response rating, Ducksalad (Heteranthera limosa): 0; Plant response rating, Barnyardgrass (barnyardgrass [15]): 0
Cc1nn(-c2ccccc2Oc2ncc(Cl)cn2)cc1Cl [Compound 39] | 0 | 10 | 10 | 90 | 10 | 50 | 0 | 0 | 10 | 20 | 0 | 0 | 0 | 0 | 0 | 0 | 0 | 10 | 0 | 0 | Plant response rating, Morningglory (morningglory): 0; Morningglory plant response rating (morningglory): 0; Plant response rating, Pigweed (pigweed [11]; [16]): 10; Plant response rating, Pigweed (pigweed [11]; [17]): 40; Plant response rating, Velvetleaf (velvetleaf [12]; [16]): 20; Plant response rating, Velvetleaf (velvetleaf [12]; [17]): 30; Plant response rating, Wheat (wheat [13]; [16]): 0; Plant response rating, Wheat (wheat [13]; [17]): 0; Plant response rating, Corn (corn [14]; [16]): 0; Plant response rating, Corn (corn [14]; [17]): 10; Plant response rating, Rice (rice): 0; Plant response rating, Sedge, Umbrella (sedge, umbrella): 30; Plant response rating, Ducksalad (Heteranthera limosa): 50; Plant response rating, Barnyardgrass (barnyardgrass [15]): 0
